Measured values from patent US20260240976A1, “T[…] VACCINES BASED ON VALIDATED TARGET EPITOPES” (Deutsches Krebsforschungszentrum Stiftung des öffentlichen …, priority 2023, published 2026).

system: short-term antigen-specific T cell lines generated from PBMCs; assay: Interferon-γ ELISpot assay on short-term antigen-specific T cell lines; assay type: cell-based, human; conditions: HLA restriction A01; for ELISpot: Immungenicity of the peptide shown by IFN-gamma ELISPOT analysis: key: +: ELISPOT: Immungenicity of the peptide shown by IFN-gamma ELISPOT analysis; +*: *highlights data from published resources; *highlights data from published resources

Substance | ELISpot: Immungenicity of the peptide shown by IFN-gamma ELISPOT analysis
133 (SEYRHYCY; Human papillomavirus 16) [compound 133] | +
8 (SKISEYRHYCY; Human papillomavirus 16) [compound 8] | +
9 (SEYRHYCYSLY; Human papillomavirus 16) [compound 9] | +
134 (IHEIILECVY; Human papillomavirus 16) [compound 134] | +
132 (TTDLYCYEQL; Human papillomavirus 16) [compound 132] | +

same assay, conditions: HLA restriction A02

Substance | ELISpot: Immungenicity of the peptide shown by IFN-gamma ELISPOT analysis
51 (TLHEYMLDLQP; Human papillomavirus 16) [compound 51] | +

same assay, conditions: HLA restriction A03

Substance | ELISpot: Immungenicity of the peptide shown by IFN-gamma ELISPOT analysis
70 (KCLKFYSKI; Human papillomavirus 16) [compound 70] | +
78 (KQRFHNIRGR; Human papillomavirus 16) [compound 78] | +
72 (KFYSKISEYR; Human papillomavirus 16) [compound 72] | +
67 (MFQDPQERPRK; Human papillomavirus 16) [compound 67] | +
77 (RCINCQKPLCP; Human papillomavirus 16) [compound 77] | +
54 (TTLEQQYNK; Human papillomavirus 16) [compound 54] | +
76 (LIRCINCQK; Human papillomavirus 16) [compound 76] | +
53 (CVYCKQQLLR; Human papillomavirus 16) [compound 53] | +

same assay, conditions: HLA restriction A11

Substance | ELISpot: Immungenicity of the peptide shown by IFN-gamma ELISPOT analysis
79 (LGIVCPICSQK; Human papillomavirus 16) [compound 79] | +
68 (YAVCDKCLKFY; Human papillomavirus 16) [compound 68] | +

same assay, conditions: HLA restriction A24

Substance | ELISpot: Immungenicity of the peptide shown by IFN-gamma ELISPOT analysis
94 (HLDKKQRFHNI; Human papillomavirus 16) [compound 94] | +
138 (HYNIVTFC; Human papillomavirus 16) [compound 138] | +
93 (YSLYGTTL; Human papillomavirus 16) [compound 93] | +
95 (DKKQRFHN; Human papillomavirus 16) [compound 95] | +

same assay, conditions: HLA restriction B07

Substance | ELISpot: Immungenicity of the peptide shown by IFN-gamma ELISPOT analysis
106 (RCMSCCRSSR; Human papillomavirus 16) [compound 106] | +
142 (CPDEKQRHL; Human papillomavirus 16) [compound 142] | +
105 (KPLCDLLI; Human papillomavirus 16) [compound 105] | +

same assay, conditions: HLA restriction B15

Substance | ELISpot: Immungenicity of the peptide shown by IFN-gamma ELISPOT analysis
129 (KQRHLDKKQRF; Human papillomavirus 16) [compound 129] | +
123 (FYSKISEY; Human papillomavirus 16) [compound 123] | +
111 (QQLLRREVY; Human papillomavirus 16) [compound 111] | +
145 (KISEYRHY; Human papillomavirus 16) [compound 145] | +
81 (RAHYNIVTF; Human papillomavirus 16) [compound 81] | +
12 (TLHEYMLDL; Human papillomavirus 16) [compound 12] | +
119 (LRREVYDFAF; Human papillomavirus 16) [compound 119] | +
118 (LLRREVYDFAF; Human papillomavirus 16) [compound 118] | +
9 (SEYRHYCYSLY; Human papillomavirus 16) [compound 9] | +
126 (SEYRHYCY; Human papillomavirus 16) [compound 126] | +
120 (IVYRDGNPYAV; Human papillomavirus 16) [compound 120] | +
148 (FYSKISEY; Human papillomavirus 16) [compound 148] | +
128 (CQKPLCPEE; Human papillomavirus 16) [compound 128] | +
121 (AVCDKCLKF; Human papillomavirus 16) [compound 121] | +

same assay, conditions: comparison among the peptides in Table 1

Substance | rates of immunoactivation in PBMC samples, CD8 T cell responses and/or numbers of HPV16 positive cell lines presenting the peptide as HLA-complexes
2 (HGDTPTLHEY; Human papillomavirus 16) [compound 2] | highest rates of immunoactivation in PBMC samples, to induce the strongest CD8 T cell responses, and/or shown to be presented as HLA-complexes by the highest numbers of HPV16 positive cell lines
81 (RAHYNIVTF; Human papillomavirus 16) [compound 81] | highest rates of immunoactivation in PBMC samples, to induce the strongest CD8 T cell responses, and/or shown to be presented as HLA-complexes by the highest numbers of HPV16 positive cell lines
11 (TIHDIILECV; Human papillomavirus 16) [compound 11] | highest rates of immunoactivation in PBMC samples, to induce the strongest CD8 T cell responses, and/or shown to be presented as HLA-complexes by the highest numbers of HPV16 positive cell lines
82 (EYRHYCYSL; Human papillomavirus 16) [compound 82] | highest rates of immunoactivation in PBMC samples, to induce the strongest CD8 T cell responses, and/or shown to be presented as HLA-complexes by the highest numbers of HPV16 positive cell lines
54 (TTLEQQYNK; Human papillomavirus 16) [compound 54] | highest rates of immunoactivation in PBMC samples, to induce the strongest CD8 T cell responses, and/or shown to be presented as HLA-complexes by the highest numbers of HPV16 positive cell lines
13 (YMLDLQPET; Human papillomavirus 16) [compound 13] | highest rates of immunoactivation in PBMC samples, to induce the strongest CD8 T cell responses, and/or shown to be presented as HLA-complexes by the highest numbers of HPV16 positive cell lines
18 (RTLEDLLMGT; Human papillomavirus 16) [compound 18] | highest rates of immunoactivation in PBMC samples, to induce the strongest CD8 T cell responses, and/or shown to be presented as HLA-complexes by the highest numbers of HPV16 positive cell lines
53 (CVYCKQQLLR; Human papillomavirus 16) [compound 53] | highest rates of immunoactivation in PBMC samples, to induce the strongest CD8 T cell responses, and/or shown to be presented as HLA-complexes by the highest numbers of HPV16 positive cell lines
